Measured values published in article PMC6128854 (Scientific Reports, 2018).
Positions of bridges follow the written chain, without caps; N, C: chain ends. Non-standard residues stand in square brackets, D forms with d. Residues, ends and D or L forms follow the SMILES beside them. Hyp = O=C(O)[C@@H]1C[C@@H](O)CN1

Target: N-type calcium channel currents (Cav2.2) in rDRG neurons (Rattus norvegicus, UniProt Q02294)
Assay: cell-based
Settings: SEM

Sequence of N-type calcium channel currents (Cav2.2) in rDRG neurons (Q02294 whole entry, looked up): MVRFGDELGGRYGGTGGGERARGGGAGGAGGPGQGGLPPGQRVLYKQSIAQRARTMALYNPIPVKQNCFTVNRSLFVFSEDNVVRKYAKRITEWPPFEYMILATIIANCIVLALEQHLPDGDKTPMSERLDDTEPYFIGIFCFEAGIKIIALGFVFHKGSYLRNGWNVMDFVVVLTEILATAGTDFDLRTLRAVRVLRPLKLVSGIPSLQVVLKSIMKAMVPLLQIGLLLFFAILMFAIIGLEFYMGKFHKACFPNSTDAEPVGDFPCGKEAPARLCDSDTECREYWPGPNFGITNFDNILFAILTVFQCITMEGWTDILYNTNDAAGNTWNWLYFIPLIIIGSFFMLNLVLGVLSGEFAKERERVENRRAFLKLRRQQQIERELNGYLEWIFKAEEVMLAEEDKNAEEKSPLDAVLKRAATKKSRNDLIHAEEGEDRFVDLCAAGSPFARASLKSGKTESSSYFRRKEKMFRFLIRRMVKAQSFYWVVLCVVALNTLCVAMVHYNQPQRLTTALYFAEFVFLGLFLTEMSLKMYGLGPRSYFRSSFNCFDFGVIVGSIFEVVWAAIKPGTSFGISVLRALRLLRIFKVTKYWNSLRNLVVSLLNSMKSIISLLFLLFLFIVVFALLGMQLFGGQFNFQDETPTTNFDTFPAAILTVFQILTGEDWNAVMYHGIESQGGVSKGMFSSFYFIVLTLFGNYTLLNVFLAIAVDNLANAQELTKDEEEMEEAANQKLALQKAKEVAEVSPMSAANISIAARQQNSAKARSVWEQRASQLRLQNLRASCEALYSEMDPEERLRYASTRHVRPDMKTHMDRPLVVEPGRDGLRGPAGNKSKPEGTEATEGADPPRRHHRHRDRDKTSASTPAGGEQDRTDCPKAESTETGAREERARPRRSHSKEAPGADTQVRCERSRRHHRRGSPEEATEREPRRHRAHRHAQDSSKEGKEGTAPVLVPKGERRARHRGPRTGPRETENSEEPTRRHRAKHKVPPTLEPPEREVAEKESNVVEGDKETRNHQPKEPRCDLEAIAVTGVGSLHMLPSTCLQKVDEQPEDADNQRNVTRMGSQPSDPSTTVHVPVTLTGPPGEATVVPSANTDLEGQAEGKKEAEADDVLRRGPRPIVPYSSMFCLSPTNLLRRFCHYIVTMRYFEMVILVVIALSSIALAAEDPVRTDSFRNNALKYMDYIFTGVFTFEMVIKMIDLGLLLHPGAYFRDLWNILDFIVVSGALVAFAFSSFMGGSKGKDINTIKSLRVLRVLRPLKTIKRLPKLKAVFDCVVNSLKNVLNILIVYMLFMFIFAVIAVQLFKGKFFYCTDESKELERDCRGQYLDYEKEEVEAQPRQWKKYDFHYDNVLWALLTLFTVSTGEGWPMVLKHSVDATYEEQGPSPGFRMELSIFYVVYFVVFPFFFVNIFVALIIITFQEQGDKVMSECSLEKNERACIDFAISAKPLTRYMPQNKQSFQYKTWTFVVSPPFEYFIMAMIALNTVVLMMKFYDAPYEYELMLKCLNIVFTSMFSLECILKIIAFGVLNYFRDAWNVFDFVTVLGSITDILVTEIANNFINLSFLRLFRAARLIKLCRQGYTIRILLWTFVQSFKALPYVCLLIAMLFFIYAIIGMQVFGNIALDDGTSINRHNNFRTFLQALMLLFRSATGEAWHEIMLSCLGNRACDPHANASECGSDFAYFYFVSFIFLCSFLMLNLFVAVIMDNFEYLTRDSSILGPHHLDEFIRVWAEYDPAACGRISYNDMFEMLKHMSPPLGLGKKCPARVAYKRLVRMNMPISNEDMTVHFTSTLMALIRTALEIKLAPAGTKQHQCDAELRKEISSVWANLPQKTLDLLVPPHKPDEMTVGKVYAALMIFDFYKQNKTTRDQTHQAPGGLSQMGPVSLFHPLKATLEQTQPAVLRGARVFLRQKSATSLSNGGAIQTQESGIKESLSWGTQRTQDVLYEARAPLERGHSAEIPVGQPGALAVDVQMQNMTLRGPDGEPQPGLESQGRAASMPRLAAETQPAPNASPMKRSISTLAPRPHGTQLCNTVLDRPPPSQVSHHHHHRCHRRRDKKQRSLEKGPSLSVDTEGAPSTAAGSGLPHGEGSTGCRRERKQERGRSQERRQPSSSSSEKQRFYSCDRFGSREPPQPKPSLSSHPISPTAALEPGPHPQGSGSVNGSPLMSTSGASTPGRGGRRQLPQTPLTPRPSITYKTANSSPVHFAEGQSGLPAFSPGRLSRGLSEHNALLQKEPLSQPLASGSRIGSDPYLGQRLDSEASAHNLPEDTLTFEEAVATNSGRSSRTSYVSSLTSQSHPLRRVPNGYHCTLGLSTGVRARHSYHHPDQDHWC

With CC[C@H](C)[C@@H]1NC(=O)[C@@H]2CSSC[C@@H]3NC(=O)[C@H](CCCCN)NC(=O)[C@H](CO)NC(=O)CNC(=O)[C@@H]4C[C@@H](O)CN4C(=O)[C@@H]4CCCN4C(=O)[C@H](CCCCN)NC(=O)[C@@H](N)CSSC[C@H](NC(=O)[C@H](CSSC[C@@H](C(=O)N[C@@H](CCCNC(=N)N)C(=O)N[C@@H](CCCCN)C(=O)N[C@@H](Cc4ccc(O)cc4)C(=O)N[C@@H](Cc4ccc(O)cc4)C(=O)O)NC(=O)[C@H](CCCNC(=N)N)NC(=O)[C@H](CCCCN)NC(=O)[C@H]([C@@H](C)O)NC(=O)[C@H](Cc4ccc(O)cc4)NC(=O)[C@H](CO)NC1=O)NC(=O)[C@H](CC(=O)O)NC(=O)[C@H](Cc1ccc(O)cc1)NC(=O)[C@H](CCSC)NC(=O)[C@H](CO)NC(=O)[C@@H]1C[C@@H](O)CN1C(=O)[C@H](CO)NC3=O)C(=O)N[C@@H]([C@@H](C)O)C(=O)N[C@@H]([C@@H](C)O)C(=O)N2 [MoVIB-[R13Y]] (H-CKP[Hyp]GSKCS[Hyp]SMYDCCTTCISYTKRCRKYY-OH; disulfide 1-16, 8-19, 15-26) the IC50 was 900 ± 130 nM.
